The results in this text go back to publication PMC12692169, “Identification of Novel TAT-I24-Related Peptides with Antiviral Activities” (International Journal of Molecular Sciences, 2025).

Residues, ends and D or L forms follow the SMILES beside them.

Series [1] relates to Baculovirus/HEK293. The note with it: 24 h.
Series [2] concerns mouse cytomegalovirus (MCMV)/NIH/3T3 cells. The note with it: 72 h.
Series [3] deals with red blood cells (RBC). Kind of series: RBC swelling (enlarged pellet after centrifugation). The note with it: 1 h; for RBC swelling: peptides diluted in PBS (absence of serum), up to 20 µM, pellet size after centrifugation; for RBC swelling in the presence of serum: peptides diluted in 10% human/donor serum.

In the case of `CC(C)[C@H](NC(=O)[C@H](CO)NC(=O)[C@H](CCC(N)=O)NC(=O)[C@@H]1CCCN1C(=O)[C@@H]1CCCN1C(=O)[C@H](CCCNC(=N)N)NC(=O)[C@H](CCCNC(=N)N)NC(=O)[C@H](CCCNC(=N)N)NC(=O)[C@H](CCC(N)=O)NC(=O)[C@H](CCCNC(=N)N)NC(=O)[C@H](CCCNC(=N)N)NC(=O)[C@H](CCCCN)NC(=O)[C@H](CCCCN)NC(=O)[C@H](CCCNC(=N)N)NC(=O)CN)C(=O)N[C@@H](Cc1ccccc1)C(=O)N[C@@H](Cc1ccc(O)cc1)C(=O)N[C@@H](C)C(=O)N[C@@H](CS)C(=O)N[C@@H](Cc1ccccc1)C(=O)N[C@@H](C)C(=O)N[C@@H](CS)C(=O)O` [TAT-De1] (H-GRKKRRQRRRPPQSVFYACFAC-OH), the IC50 (usually the concentration needed to halve the response being measured) turned out to be 37 nM in series [1] and 1610 nM in series [2]. In addition, the RBC swelling entry in series [3] is “less effect on RBC swelling”.

In the case of `CC(C)C[C@H](NC(=O)[C@H](CS)NC(=O)[C@H](CCC(N)=O)NC(=O)[C@@H]1CCCN1C(=O)[C@@H]1CCCN1C(=O)[C@H](CCCNC(=N)N)NC(=O)[C@H](CCCNC(=N)N)NC(=O)[C@H](CCCNC(=N)N)NC(=O)[C@H](CCC(N)=O)NC(=O)[C@H](CCCNC(=N)N)NC(=O)[C@H](CCCNC(=N)N)NC(=O)[C@H](CCCCN)NC(=O)[C@H](CCCCN)NC(=O)[C@H](CCCNC(=N)N)NC(=O)CN)C(=O)N[C@@H](C)C(=O)N[C@@H](Cc1ccccc1)C(=O)N[C@@H](Cc1ccc(O)cc1)C(=O)N[C@@H](C)C(=O)N[C@@H](CS)C(=O)N[C@@H](Cc1ccccc1)C(=O)N[C@@H](CS)C(=O)O` [TAT-I24] (H-GRKKRRQRRRPPQCLAFYACFC-OH), the values for the IC50 in series [1] and in series [2] were 16 nM and 809 nM, respectively. In series [3], the “RBC swelling in the presence of serum” value is reported as “not in the presence of donor serum”. In series [3], the RBC swelling entry was “caused RBC swelling at higher concentrations”.

Consider `CC[C@H](C)[C@H](NC(=O)[C@H](C)NC(=O)[C@H](CC(C)C)NC(=O)[C@H](CS)NC(=O)[C@H](CCC(N)=O)NC(=O)[C@@H]1CCCN1C(=O)[C@@H]1CCCN1C(=O)[C@H](CCCNC(=N)N)NC(=O)[C@H](CCCNC(=N)N)NC(=O)[C@H](CCCNC(=N)N)NC(=O)[C@H](CCC(N)=O)NC(=O)[C@H](CCCNC(=N)N)NC(=O)[C@H](CCCNC(=N)N)NC(=O)[C@H](CCCCN)NC(=O)[C@H](CCCCN)NC(=O)[C@H](CCCNC(=N)N)NC(=O)CN)C(=O)N[C@@H](Cc1ccc(O)cc1)C(=O)N[C@@H](CC(=O)O)C(=O)N[C@@H](CS)C(=O)N[C@@H](Cc1ccccc1)C(=O)N[C@@H](CS)C(=O)O` [TAT-M13] (H-GRKKRRQRRRPPQCLAIYDCFC-OH), for which the figures for the IC50 in series [1] and in series [2] were 31 nM and 1220 nM, respectively. For the same molecule, in series [3], the RBC swelling entry is listed as “caused RBC swelling at higher concentrations”.

As to `CC(C)C[C@H](NC(=O)[C@H](CS)NC(=O)[C@H](CCC(N)=O)NC(=O)[C@@H]1CCCN1C(=O)[C@@H]1CCCN1C(=O)[C@H](CCCNC(=N)N)NC(=O)[C@H](CCCNC(=N)N)NC(=O)[C@H](CCCNC(=N)N)NC(=O)[C@H](CCC(N)=O)NC(=O)[C@H](CCCNC(=N)N)NC(=O)[C@H](CCCNC(=N)N)NC(=O)[C@H](CCCCN)NC(=O)[C@H](CCCCN)NC(=O)[C@H](CCCNC(=N)N)NC(=O)CN)C(=O)N[C@@H](C)C(=O)N[C@H](C(=O)N[C@@H](Cc1ccc(O)cc1)C(=O)N[C@@H](CC(=O)O)C(=O)N[C@@H](CS)C(=O)N[C@@H](Cc1ccccc1)C(=O)N[C@H](C(=O)O)C(C)C)C(C)C` [TAT-M17] (H-GRKKRRQRRRPPQCLAVYDCFV-OH; N-terminus and C-terminus assumed), the IC50 was found to be 102 nM in series [1] and 5850 nM in series [2]. In addition, the RBC swelling entry in series [3] is given as “did not cause RBC swelling in the absence of serum even at 20 µM”.

Regarding `CC(C)C[C@H](NC(=O)[C@H](CS)NC(=O)[C@H](CCC(N)=O)NC(=O)[C@@H]1CCCN1C(=O)[C@@H]1CCCN1C(=O)[C@H](CCCNC(=N)N)NC(=O)[C@H](CCCNC(=N)N)NC(=O)[C@H](CCCNC(=N)N)NC(=O)[C@H](CCC(N)=O)NC(=O)[C@H](CCCNC(=N)N)NC(=O)[C@H](CCCNC(=N)N)NC(=O)[C@H](CCCCN)NC(=O)[C@H](CCCCN)NC(=O)[C@H](CCCNC(=N)N)NC(=O)CN)C(=O)N[C@@H](C)C(=O)N[C@H](C(=O)N[C@@H](Cc1c[nH]cn1)C(=O)N[C@@H](CC(=O)O)C(=O)N[C@@H](CS)C(=O)N[C@@H](Cc1ccccc1)C(=O)N[C@H](C(=O)O)C(C)C)C(C)C` [TAT-M22] (H-GRKKRRQRRRPPQCLAVHDCFV-OH; N-terminus and C-terminus assumed), the IC50 is 245 nM in series [1] and 11800 nM in series [2]. Further, the RBC swelling result in series [3] is recorded as “did not cause RBC swelling in the absence of serum even at 20 µM”.

Consider `CC(C)C[C@H](NC(=O)[C@H](CS)NC(=O)[C@H](C)NC(=O)[C@H](Cc1ccc(O)cc1)NC(=O)[C@H](Cc1ccccc1)NC(=O)[C@H](C)NC(=O)[C@H](CC(C)C)NC(=O)[C@H](CCC(N)=O)NC(=O)[C@@H]1CCCN1C(=O)[C@@H]1CCCN1C(=O)[C@H](CCCNC(=N)N)NC(=O)[C@H](CCCNC(=N)N)NC(=O)[C@H](CCCNC(=N)N)NC(=O)[C@H](CCC(N)=O)NC(=O)[C@H](CCCNC(=N)N)NC(=O)[C@H](CCCNC(=N)N)NC(=O)[C@H](CCCCN)NC(=O)[C@H](CCCCN)NC(=O)[C@H](CCCNC(=N)N)NC(=O)CN)C(=O)N[C@@H](C)C(=O)N[C@@H](Cc1ccccc1)C(=O)O` [TAT-M40] (H-GRKKRRQRRRPPQLAFYACLAF-OH), for which the IC50 in series [1] was found to be 21 nM; in series [2] it was 1850 nM. For the same molecule, the RBC swelling result in series [3] was “caused RBC swelling at higher concentrations”.

For the molecule `CC(C)C[C@H](NC(=O)[C@H](CS)NC(=O)[C@H](C)NC(=O)[C@H](Cc1ccc(O)cc1)NC(=O)[C@H](Cc1ccccc1)NC(=O)[C@H](C)NC(=O)[C@H](CC(C)C)NC(=O)[C@H](CS)NC(=O)[C@@H]1CCCN1C(=O)[C@H](CCCNC(=N)N)NC(=O)[C@H](CCCNC(=N)N)NC(=O)[C@H](CCCNC(=N)N)NC(=O)[C@H](CCC(N)=O)NC(=O)[C@H](CCCNC(=N)N)NC(=O)[C@H](CCCNC(=N)N)NC(=O)[C@H](CCCCN)NC(=O)[C@H](CCCCN)NC(=O)[C@H](CCCNC(=N)N)NC(=O)CN)C(=O)N[C@@H](C)C(=O)N[C@@H](Cc1ccccc1)C(=O)N[C@@H](Cc1ccc(O)cc1)C(=O)N[C@@H](C)C(=O)N[C@@H](CS)C(=O)O` [TAT-M212] (H-GRKKRRQRRRPCLAFYACLAFYAC-OH), the IC50 turned out to be 619 nM in series [1] and 18200 nM in series [2]. Also, the RBC swelling entry in series [3] is given as “caused RBC swelling over a broad concentration range comparable to TAT-M214”.

Regarding `CC(C)C[C@H](NC(=O)[C@H](CO)NC(=O)[C@H](C)NC(=O)[C@H](Cc1ccc(O)cc1)NC(=O)[C@H](Cc1ccccc1)NC(=O)[C@H](C)NC(=O)[C@H](CC(C)C)NC(=O)[C@H](CCC(N)=O)NC(=O)[C@@H]1CCCN1C(=O)[C@@H]1CCCN1C(=O)[C@H](CCCNC(=N)N)NC(=O)[C@H](CCCNC(=N)N)NC(=O)[C@H](CCCNC(=N)N)NC(=O)[C@H](CCC(N)=O)NC(=O)[C@H](CCCNC(=N)N)NC(=O)[C@H](CCCNC(=N)N)NC(=O)[C@H](CCCCN)NC(=O)[C@H](CCCCN)NC(=O)[C@H](CCCNC(=N)N)NC(=O)CN)C(=O)N[C@@H](C)C(=O)N[C@@H](Cc1ccccc1)C(=O)O` [TAT-M219] (H-GRKKRRQRRRPPQLAFYASLAF-OH), the figures for the IC50 in series [1] and in series [2] were 96 nM and 7380 nM, respectively. Moreover, in series [3], the RBC swelling entry is recorded as “did not cause RBC swelling in the absence of serum even at 20 µM”.

As to `CC(C)C[C@H](NC(=O)[C@H](Cc1ccccc1)NC(=O)[C@H](CS)NC(=O)[C@H](Cc1ccccc1)NC(=O)[C@@H]1CCCN1C(=O)[C@H](CO)NC(=O)[C@H](CCC(N)=O)NC(=O)[C@@H]1CCCN1C(=O)[C@@H]1CCCN1C(=O)[C@H](CCCNC(=N)N)NC(=O)[C@H](CCCNC(=N)N)NC(=O)[C@H](CCCNC(=N)N)NC(=O)[C@H](CCC(N)=O)NC(=O)[C@H](CCCNC(=N)N)NC(=O)[C@H](CCCNC(=N)N)NC(=O)[C@H](CCCCN)NC(=O)[C@H](CCCCN)NC(=O)[C@H](CCCNC(=N)N)NC(=O)CN)C(=O)N[C@@H](C)C(=O)N[C@@H](Cc1ccccc1)C(=O)N[C@@H](CS)C(=O)N[C@@H](Cc1ccccc1)C(=O)O` [TAT-T7] (H-GRKKRRQRRRPPQSPFCFLAFCF-OH; N-terminus and C-terminus assumed), in series [1], half-maximal inhibition (IC50) was put at 17 nM. The IC50 in series [2] came out at 1130 nM. Moreover, in series [3], the “RBC swelling in the presence of serum” value was “not in the presence of donor serum” and the RBC swelling result was “caused RBC swelling at higher concentrations”.
